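Values below derive from 48-hour exposures of cells grown in 96-well plates, with endpoints linearly interpolated between the two concentrations bracketing the appropriate inhibition level. Here, GI50 denotes the concentration required for 50% inhibition of growth. TGI: concentration producing complete growth inhibition.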
Key:
Experiment in all cases: growth of human tumour cells (NCI), 48 h
[1] = tested on: KM12 colon
[2] = tested on: T-47D breast
[3] = tested on: A549 NSCLC
[4] = tested on: MDA-MB-231 breast
[5] = tested on: SN12C renal
[6] = tested on: DU-145 prostate
[7] = tested on: SNB-75 CNS
[8] = tested on: ACHN renal
[9] = tested on: HL-60(TB) leukemia
[10] = tested on: PC-3 prostate
[11] = tested on: SK-MEL-5 melanoma
[12] = tested on: OVCAR-4 ovarian
[13] = tested on: HT29 colon
[14] = tested on: RPMI-8226 leukemia
[15] = tested on: MDA-MB-435
[16] = tested on: HOP-62 NSCLC
[17] = tested on: CCRF-CEM leukemia
[18] = tested on: BT-549 breast
[19] = tested on: SK-OV-3 ovarian
[20] = tested on: M14 melanoma
[21] = tested on: NCI-H226 lung
[22] = tested on: MOLT-4 leukemia
[23] = tested on: OVCAR-5 ovarian
[24] = tested on: IGROV1 ovarian
[25] = tested on: EKVX NSCLC
[26] = tested on: SF-268 CNS
[27] = tested on: SF-539 CNS
[28] = tested on: COLO 205 colon
[29] = tested on: NCI-H522 lung
[30] = tested on: SNB-19 CNS
[31] = tested on: SW-620 colon
[32] = tested on: NCI-H460 lung
[33] = tested on: TK-10 renal
[34] = tested on: SF-295 CNS
[35] = tested on: HS 578T breast
[36] = tested on: OVCAR-3 ovarian
[37] = tested on: HCT-15 colon
[38] = tested on: SK-MEL-28 melanoma
[39] = tested on: A498 renal
[40] = tested on: U251 CNS
[41] = tested on: UO-31 renal
[42] = tested on: HCC-2998 colon
[43] = tested on: K-562 leukemia
[44] = tested on: MCF7 breast
[45] = tested on: LOX IMVI melanoma
[46] = tested on: RXF 393 renal
[47] = tested on: MALME-3M melanoma
[48] = tested on: SK-MEL-2 melanoma
[49] = tested on: UACC-257 melanoma
[50] = tested on: 786-0 renal
[51] = tested on: OVCAR-8 ovarian
[52] = tested on: NCI/ADR-RES ovarian
[53] = tested on: CAKI-1 renal
[54] = tested on: UACC-62 melanoma
[55] = tested on: SR leukemia
[56] = tested on: NCI-H23 lung
[57] = tested on: HOP-92 NSCLC
[58] = tested on: HCT-116 colon

## COC(=O)c1ccc2c(c1)c1c(C)c3cnccc3c(C)c1n2C
[1]
  GI50: 49.5 nM
  TGI: 1890 nM
[2]
  GI50: 280 nM
  TGI: 2250 nM
[3]
  GI50: 61.5 nM
  TGI: 658 nM
[4]
  GI50: 125 nM
  TGI: 884 nM
[5]
  GI50: 44 nM
  TGI: 1300 nM
[6]
  GI50: 51.3 nM
  TGI: 1280 nM
[7]
  GI50: 72 nM
  TGI: 563 nM
[8]
  GI50: 29.7 nM
  TGI: 299 nM
[9]
  GI50: 243 nM
  TGI: 1050 nM
[10]
  GI50: 57.9 nM
  TGI: 4060 nM
[11]
  GI50: 86.6 nM
  TGI: 253 nM
[12]
  GI50: 83.9 nM
  TGI: 531 nM
[13]
  GI50: 41.8 nM
  TGI: 1400 nM
[14]
  GI50: 47.5 nM
  TGI: 409 nM
[15]
  GI50: 58.5 nM
  TGI: 1090 nM
[16]
  GI50: 53.8 nM
  TGI: 995 nM
[17]
  GI50: 103 nM
  TGI: 13800 nM
[18]
  GI50: 247 nM
  TGI: 3540 nM
[19]
  GI50: 107 nM
  TGI: 527 nM
[20]
  GI50: 62.2 nM
  TGI: 241 nM
[21]
  GI50: 57.4 nM
  TGI: 341 nM
[22]
  GI50: 46.8 nM
  TGI: 3130 nM
[23]
  GI50: 117 nM
  TGI: 1260 nM
[24]
  GI50: 32.3 nM
  TGI: 569 nM
[25]
  GI50: 186 nM
  TGI: 623 nM
[26]
  GI50: 61.8 nM
  TGI: 3060 nM
[27]
  GI50: 75 nM
  TGI: 763 nM
[28]
  GI50: 38.7 nM
  TGI: 277 nM
[29]
  GI50: 66.7 nM
  TGI: 528 nM
[30]
  GI50: 50.9 nM
  TGI: 7650 nM
[31]
  GI50: 37.5 nM
  TGI: 1310 nM
[32]
  GI50: 178 nM
  TGI: 674 nM
[33]
  GI50: 277 nM
  TGI: 3350 nM
[34]
  GI50: 65.2 nM
  TGI: 558 nM
[35]
  GI50: 108 nM
  TGI: 584 nM
[36]
  GI50: 65.2 nM
  TGI: 1150 nM
[37]
  GI50: 39.4 nM
  TGI: 1380 nM
[38]
  GI50: 95.1 nM
  TGI: 444 nM
[39]
  GI50: 34.8 nM
  TGI: 166 nM
[40]
  GI50: 49.9 nM
  TGI: 1480 nM
[41]
  GI50: 36.9 nM
  TGI: 821 nM
[42]
  GI50: 137 nM
  TGI: 3850 nM
[43]
  GI50: 44.2 nM
  TGI: 1800 nM
[44]
  GI50: 109 nM
  TGI: 511 nM
[45]
  GI50: 39.1 nM
  TGI: 194 nM
[46]
  GI50: 51.2 nM
  TGI: 286 nM
[47]
  GI50: 61.5 nM
  TGI: 314 nM
[48]
  GI50: 107 nM
  TGI: 471 nM
[49]
  GI50: 101 nM
  TGI: 511 nM
[50]
  GI50: 66.6 nM
  TGI: 1340 nM
[51]
  GI50: 59.5 nM
  TGI: 3790 nM
[52]
  GI50: 49.8 nM
  TGI: 636 nM
[53]
  GI50: 35.4 nM
  TGI: 610 nM
[54]
  GI50: 41.6 nM
  TGI: 151 nM
[55]
  GI50: 37.2 nM
  TGI: 2040 nM
[56]
  GI50: 53 nM
  TGI: 328 nM
[57]
  GI50: 65.3 nM
  TGI: 584 nM

## CN(C)Cc1cc(C(=O)/C=C/c2ccc(/C=C/C(=O)c3cc(CN(C)C)c(O)c(CN(C)C)c3)cc2)cc(CN(C)C)c1O
[1]
  TGI: 56300 nM
[2]
  TGI: > 100000 nM
[3]
  TGI: > 100000 nM
[4]
  TGI: 41100 nM
[5]
  TGI: 76000 nM
[6]
  TGI: > 100000 nM
[7]
  TGI: > 100000 nM
[8]
  TGI: > 100000 nM
[9]
  TGI: 98000 nM
[10]
  TGI: 49600 nM
[11]
  TGI: > 100000 nM
[12]
  TGI: > 100000 nM
[13]
  TGI: 37700 nM
[14]
  TGI: 65500 nM
[15]
  TGI: 79700 nM
[16]
  TGI: > 100000 nM
[17]
  TGI: > 100000 nM
[18]
  TGI: 60200 nM
[20]
  TGI: 46800 nM
[22]
  TGI: 68600 nM
[23]
  TGI: 59800 nM
[24]
  TGI: > 100000 nM
[25]
  TGI: > 100000 nM
[26]
  TGI: > 100000 nM
[27]
  TGI: 78800 nM
[28]
  TGI: 28200 nM
[29]
  TGI: 40100 nM
[30]
  TGI: > 100000 nM
[31]
  TGI: 54700 nM
[33]
  TGI: > 100000 nM
[34]
  TGI: > 100000 nM
[35]
  TGI: > 100000 nM
[36]
  TGI: > 100000 nM
[37]
  TGI: > 100000 nM
[38]
  TGI: > 100000 nM
[39]
  TGI: > 100000 nM
[40]
  TGI: 47000 nM
[41]
  TGI: > 100000 nM
[42]
  TGI: 33400 nM
[43]
  TGI: > 100000 nM
[44]
  TGI: > 100000 nM
[45]
  TGI: 26500 nM
[58]
  TGI: 34000 nM
[46]
  TGI: > 100000 nM
[47]
  TGI: > 100000 nM
[48]
  TGI: > 100000 nM
[49]
  TGI: > 100000 nM
[50]
  TGI: 58100 nM
[51]
  TGI: > 100000 nM
[52]
  TGI: > 100000 nM
[53]
  TGI: > 100000 nM
[54]
  TGI: 94300 nM
[55]
  TGI: > 100000 nM
[56]
  TGI: 55700 nM
[57]
  TGI: 56400 nM

Reference: PubChem BioAssay (NCI)
